Measurements reported in US20220287970A1, “COMPOSITION FOR INHIBITING SAPONIN-INDUCED HEMOLYSIS, CONTAINING CATIONIC LIPOSOME” (priority 2020, published 2022).

Columns and labels:
red blood cells (RBCs) [1] = assay: Hemolysis analysis: steroidal and triterpenoid saponins (Example 5); assay type: cell-based; details: saponin alone
Procedure: 1) The liposome, saponin, sucrose in a HEPES buffer (pH 7.4), and distilled water were placed in a 96-well plate, as shown in Tables 14 and 15 below.
2) The reaction was carried out at room temperature and 300 rpm for 30 minutes using an orbital shaker.
3) 3 mL of RBCs were suspended in 10 mL of PBS and centrifuged at room temperature and 1500 rpm for 5 minutes, after which the supernatant was removed.
4) Steps 2) and 3) were repeated three times, and thus the RBCs were washed.
5) The RBC pellet was suspended in 1 mL of PBS and diluted to 1/100, followed by cell counting.
6) The RBCs were diluted to 1.5×10^9 cells/mL using PBS and dispensed at 3×10^7 cells/20 μL/well in a 96-well plate treated with the test material of 2) above.
7) The reaction was carried out at room temperature and 300 rpm for 1 hour using an orbital shaker.
8) The 96-well plate was centrifuged at room temperature and 1500 rpm for 5 minutes.
9) 50 μL of the supernatant was transferred to a new 96-well plate, and the absorbance was then measured at 415 nm.
10) Hemolysis (%) was calculated using the following equation.
(§1) Hemolysis (%)=(OD of sample OD of 0% hemolysis)/(0D of 100% hemolysis−OD of 0% hemolysis)×100

red blood cells (RBCs) [2] = assay: Hemolysis analysis: cationic liposome screening vs crude saponin and QS21 (Example 3); assay type: cell-based; details: saponin alone
Procedure: 1) After freeze-drying, the liposome stored in the glass vial was hydrated with 225 μL of distilled water and then allowed to react at 60° C. for 10 minutes to thus completely dissolve the liposome.
2) The liposome, saponin, sucrose in a HEPES buffer (pH 7.4), and distilled water were placed in a 96-well plate, as shown in Tables 8 and 9 below.
3) The reaction was carried out at room temperature and 300 rpm for 30 minutes using an orbital shaker.
4) 3 mL of RBCs were suspended in 10 mL of PBS and centrifuged at room temperature and 1500 rpm for 5 minutes, after which the supernatant was removed.
5) Steps 3) and 4) were repeated three times, and thus the RBCs were washed.
6) The RBC pellet was suspended in 1 mL of PBS and diluted to 1/100, followed by cell counting.
7) The RBCs were diluted to 1.5×10^9 cells/mL using PBS and dispensed at 3×10^7 cells/20 μL/well in a 96-well plate treated with the test material of 2) above.
8) The reaction was carried out at room temperature and 300 rpm for 1 hour using an orbital shaker.
9) The 96-well plate was centrifuged at room temperature and 1500 rpm for 5 minutes.
10) 50 μL of the supernatant was transferred to a new 96-well plate, and the absorbance was then measured at 415 nm.
11) Hemolysis (%) was calculated using the following equation.
as §1

C[C@@H]1CC[C@@]2(OC1)O[C@H]1C[C@H]3[C@@H]4CC=C5C[C@@H](O[C@@H]6O[C@H](CO)[C@@H](O[C@@H]7O[C@@H](C)[C@H](O[C@@H]8O[C@@H](C)[C@H](O)[C@@H](O)[C@H]8O)[C@@H](O)[C@H]7O)[C@H](O)[C@H]6O[C@@H]6O[C@@H](C)[C@H](O)[C@@H](O)[C@H]6O)CC[C@]5(C)[C@H]4CC[C@]3(C)[C@@]1(O)[C@@H]2C [Paris VII]
amount of saponin at which 60% hemolysis was observed (red blood cells (RBCs) [1]): 1.25 µg
amount of saponin at which 100% hemolysis was observed (red blood cells (RBCs) [1]): 5 µg

C[C@@H]1CC[C@@]2(OC1)O[C@H]1[C@@H](O)[C@H]3[C@@H]4CC[C@H]5C[C@@H](O[C@@H]6O[C@H](CO)[C@H](O[C@@H]7O[C@H](CO)[C@@H](O)[C@H](O[C@@H]8OC[C@@H](O)[C@H](O)[C@H]8O)[C@H]7O[C@@H]7O[C@H](CO)[C@H](O)[C@H](O[C@@H]8O[C@H](CO)[C@@H](O)[C@H](O)[C@H]8O)[C@H]7O)[C@H](O)[C@H]6O)[C@H](O)C[C@]5(C)[C@H]4CC[C@]3(C)[C@H]1[C@@H]2C [digitonin]
amount of saponin at which 60% hemolysis was observed (red blood cells (RBCs) [1]): 2.5 µg
amount of saponin at which 100% hemolysis was observed (red blood cells (RBCs) [1]): 10 µg

C[C@@H]1O[C@@H](O[C@H]2[C@H](O[C@H]3CC[C@@]4(C)[C@@H](CC[C@]5(C)[C@@H]4CC=C4[C@@H]6CC(C)(C)CC[C@]6(C(=O)O)CC[C@]45C)[C@]3(C)CO)OC[C@H](O)[C@@H]2O)[C@H](O)[C@H](O)[C@H]1O [α-hederin]
amount of saponin at which 60% hemolysis was observed (red blood cells (RBCs) [1]): 1.25 µg
amount of saponin at which 100% hemolysis was observed (red blood cells (RBCs) [1]): 10 µg

QS21
amount of saponin at which 100% hemolysis was observed (red blood cells (RBCs) [2]): 2.5 µg
